Data: patent US9718804B2, “GSK-3 inhibitors” (BRISTOL-MYERS SQUIBB COMPANY, priority 2013, dated 2017)
Like-named read-outs stand apart in the source and are kept apart here.

Experiments:
pTau = pTau assay (no method described); type: cell-based
GSK3α = GSK3α (Homo sapiens, UniProt P49840); assay: GSK3α kinase assay (Caliper LabChip, fluoresceinated peptide substrate); type: biochemical
In short: (§1)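 Kinase reactions ran at room temperature for 20 hours, then were stopped with EDTA. Phosphorylated product and unphosphorylated substrate were separated electrophoretically on a LabChip3000, and IC50s came from non-linear regression over eleven compound concentrations.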

GSK3β = GSK3β (Homo sapiens, UniProt P49841); assay: GSK3β kinase assay (Caliper LabChip, fluoresceinated peptide substrate); type: biochemical
In short: as §1

[1] = first value of the cell, 250 pM enzyme, 20 uM ATP, 20 hours at room temperature, read-out: GSK3β/α (nM): GSK3β IC50
[2] = second value of the cell, 250 pM enzyme, 20 uM ATP, 20 hours at room temperature, read-out: GSK3β/α (nM): GSK3α IC50

Sequence of GSK3α (P49840 whole entry, species assumed): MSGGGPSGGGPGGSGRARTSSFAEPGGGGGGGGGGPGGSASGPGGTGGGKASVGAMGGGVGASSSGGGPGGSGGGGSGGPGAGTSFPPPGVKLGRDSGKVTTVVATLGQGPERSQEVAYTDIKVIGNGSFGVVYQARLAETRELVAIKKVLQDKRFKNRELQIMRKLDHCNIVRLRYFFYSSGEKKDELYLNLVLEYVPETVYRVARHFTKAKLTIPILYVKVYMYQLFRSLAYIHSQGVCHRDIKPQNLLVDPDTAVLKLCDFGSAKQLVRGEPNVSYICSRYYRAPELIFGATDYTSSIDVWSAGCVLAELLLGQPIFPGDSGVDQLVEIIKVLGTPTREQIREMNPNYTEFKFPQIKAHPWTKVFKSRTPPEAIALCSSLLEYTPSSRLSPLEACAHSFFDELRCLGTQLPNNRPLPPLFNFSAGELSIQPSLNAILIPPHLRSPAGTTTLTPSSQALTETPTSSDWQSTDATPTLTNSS
Sequence of GSK3β (P49841 whole entry, species assumed): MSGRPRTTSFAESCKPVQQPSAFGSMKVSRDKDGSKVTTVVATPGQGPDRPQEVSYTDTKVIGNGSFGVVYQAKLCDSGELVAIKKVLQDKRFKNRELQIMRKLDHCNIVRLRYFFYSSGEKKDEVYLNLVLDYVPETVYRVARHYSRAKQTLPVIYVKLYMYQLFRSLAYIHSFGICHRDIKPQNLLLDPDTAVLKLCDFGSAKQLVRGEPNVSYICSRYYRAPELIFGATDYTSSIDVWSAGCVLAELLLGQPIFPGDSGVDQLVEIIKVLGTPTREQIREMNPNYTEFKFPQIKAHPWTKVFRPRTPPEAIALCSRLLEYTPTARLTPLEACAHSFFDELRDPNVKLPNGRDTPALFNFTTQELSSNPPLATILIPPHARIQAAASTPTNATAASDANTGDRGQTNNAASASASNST

N#Cc1ccc(Nc2cc(C(=O)Nc3cnccc3-c3ccccc3)ccn2)nc1 [Example 10, 2-((5-Cyanopyridin-2-yl)amino)-N-(4-phenylpyridin-3-yl)isonicotinamide]
IC50 (pTau): 27 nM | IC50 (GSK3α): 0.58 nM | IC50 (GSK3β; [1]): 0.98 nM

O=C(Nc1cncc(-c2cc(F)ccc2F)c1)c1ccnc(Nc2cccc(C(F)(F)F)n2)c1 [Example 146, N-(5-(2,5-Difluorophenyl)pyridin-3-yl)-2-((6-(trifluoromethyl)pyridin-2-yl)amino)isonicotinamide]
IC50 (pTau): 1400 nM | IC50 (GSK3α): 3.2 nM | IC50 (GSK3β; [1]): 5.1 nM

CC[C@@]1(c2cc(Cl)ncc2NC(=O)c2ccnc(Nc3ccc(C(F)(F)F)cn3)c2)OC[C@@H](C(F)(F)F)O1 [Example 85, N-(6-Chloro-4-((2R,4S)-2-ethyl-4-(trifluoromethyl)-1,3-dioxolan-2-yl)pyridin-3-yl)-2-((5-(trifluoromethyl)pyridin-2-yl)amino)isonicotinamide]
IC50 (pTau): 5500 nM | IC50 (GSK3α): 35 nM | IC50 (GSK3β; [1]): 64 nM

CC1(c2cc(F)ncc2NC(=O)c2ccnc(Nc3ccc(C(F)(F)F)cn3)c2)OCCO1 [Example 82, N-(6-Fluoro-4-(2-methyl-1,3-dioxolan-2-yl)pyridin-3-yl)-2-((5-(trifluoromethyl)pyridin-2-yl)amino)isonicotinamide]
IC50 (pTau): 230 nM | IC50 (GSK3α): 1.9 nM | IC50 (GSK3β; [1]): 7.1 nM

CC(C)Oc1ccncc1NC(=O)c1ccnc(Nc2ccc(C(F)(F)F)cn2)c1 [Example 19, N-(4-(Isopropoxy)pyridin-3-yl)-2-((5-(trifluoromethyl)pyridin-2-yl)amino)isonicotinamide]
IC50 (pTau): 16 nM | IC50 (GSK3α): 0.55 nM | IC50 (GSK3β; [1]): 1.6 nM

O=C(Nc1cnncc1C1(CCCCl)OCCO1)c1ccnc(Nc2ccc(C(F)(F)F)cn2)c1 [Example 201, N-(5-(2-(3-Chloropropyl)-1,3-dioxolan-2-yl)pyridazin-4-yl)-2-((5-(trifluoromethyl)pyridin-2-yl)amino)isonicotinamide]
IC50 (pTau): 28 nM | IC50 (GSK3α): 0.4 nM | IC50 (GSK3β; [1]): 0.19 nM

CC1(COc2cncc(NC(=O)c3ccnc(Nc4cccc(C(F)(F)F)n4)c3)c2)CC1 [Example 125, N-(5-((1-Methylcyclopropyl)methoxy)pyridin-3-yl)-2-((6-(trifluoromethyl)pyridin-2-yl)amino)isonicotinamide]
IC50 (pTau): 2200 nM | IC50 (GSK3α): 3.8 nM | IC50 (GSK3β): 12 nM

Cc1ccc(Nc2cc(C(=O)Nc3cncc(-c4ccccc4F)c3)ccn2)nc1 [Example 133, N-(5-(2-Fluorophenyl)pyridin-3-yl)-2-((5-methylpyridin-2-yl)amino)isonicotinamide]
IC50 (pTau): 1400 nM | IC50 (GSK3α): 3.4 nM | IC50 (GSK3β; [1]): 7.3 nM

O=C(Nc1cnc(F)cc1C1(C2CC2)OCCO1)c1ccnc(Nc2ccc(C(F)(F)F)cn2)c1 [Example 94, N-(4-(2-Cyclopropyl-1,3-dioxolan-2-yl)-6-fluoropyridin-3-yl)-2-((5-(trifluoromethyl)pyridin-2-yl)amino)isonicotinamide]
IC50 (pTau): 1.2 nM | IC50 (GSK3α): 0.03 nM | IC50 (GSK3β; [1]): 0.06 nM

O=C(Nc1cnccc1C1CCOCC1)c1ccnc(Nc2ccc(C(F)(F)F)cn2)c1 [Example 35, N-(4-(Tetrahydro-2H-pyran-4-yl)pyridin-3-yl)-2-((5-(trifluoromethyl)pyridin-2-yl)amino)isonicotinamide]
IC50 (pTau): 760 nM | IC50 (GSK3α; [2]): 8.7 nM | IC50 (GSK3β): 16 nM

O=C(Nc1cncc(-c2cccc(F)c2F)c1)c1ccnc(Nc2cccc(C(F)(F)F)n2)c1 [Example 147, N-(5-(2,3-Difluorophenyl)pyridin-3-yl)-2-((6-(trifluoromethyl)pyridin-2-yl)amino)isonicotinamide]
IC50 (pTau): 380 nM | IC50 (GSK3α): 44 nM | IC50 (GSK3β; [1]): 2.3 nM

O=C(Nc1cnccc1C1=CCCCO1)c1ccnc(Nc2ccc(C(F)(F)F)cn2)c1 [Example 39, N-(4-(3,4-Dihydro-2H-pyran-6-yl)pyridin-3-yl)-2-((5-(trifluoromethyl)pyridin-2-yl)amino)isonicotinamide]
IC50 (pTau): 140 nM | IC50 (GSK3α): 0.93 nM | IC50 (GSK3β; [1]): 1.2 nM

C[C@H]1CO[C@](c2cc(Cl)ncc2NC(=O)c2ccnc(Nc3ccc(C(F)(F)F)cn3)c2)(C2CC2)O1 [Example 97, N-(6-Chloro-4-((2R,4S)-2-cyclopropyl-4-methyl-1,3-dioxolan-2-yl)pyridin-3-yl)-2-((5-(trifluoromethyl)pyridin-2-yl)amino)isonicotinamide]
IC50 (pTau): 84 nM | IC50 (GSK3α): 0.56 nM | IC50 (GSK3β; [1]): 1.5 nM

Cc1ccc(Nc2cc(C(=O)Nc3cnccc3-c3ccccc3)ccn2)nc1 [Example 5, 2-((5-Methylpyridin-2-yl)amino)-N-(4-phenylpyridin-3-yl)isonicotinamide]
IC50 (pTau): 183 nM | IC50 (GSK3α): 4.8 nM | IC50 (GSK3β; [1]): 0.77 nM

O=C(Nc1cncnc1Br)c1ccnc(Nc2ccc(C(F)(F)F)cn2)c1 [Example 192, N-(4-Bromopyrimidin-5-yl)-2-((5-(trifluoromethyl)pyridin-2-yl)amino)isonicotinamide]
IC50 (pTau): 520 nM | IC50 (GSK3α): 9.3 nM | IC50 (GSK3β; [1]): 23 nM

O=C(Nc1cnccn1)c1ccnc(Nc2ccc(C(F)(F)F)cn2)c1 [Example 189, N-(Pyrazin-2-yl)-2-((5-(trifluoromethyl)pyridin-2-yl)amino)isonicotinamide]
IC50 (pTau): 1030 nM | IC50 (GSK3α): 4.3 nM | IC50 (GSK3β; [1]): 11 nM

O=C(Nc1cncc(-c2ccccc2Cl)c1)c1ccnc(Nc2cccc(C(F)(F)F)n2)c1 [Example 145, N-(5-(2-Chlorophenyl)pyridin-3-yl)-2-((6-(trifluoromethyl)pyridin-2-yl)amino)isonicotinamide]
IC50 (pTau): 730 nM | IC50 (GSK3α): 4.4 nM | IC50 (GSK3β; [1]): 6.4 nM

CC(C)(C)COc1ccncc1NC(=O)c1ccnc(Nc2ccc(C#N)cn2)c1 [Example 25, 2-((5-Cyanopyridin-2-yl)amino)-N-(4-(neopentyloxy)pyridin-3-yl)isonicotinamide]
IC50 (pTau): 30 nM | IC50 (GSK3α): 2 nM | IC50 (GSK3β; [1]): 4.3 nM

CC(=O)c1ccc(Nc2cc(C(=O)Nc3cncc(-c4ccccc4F)c3)ccn2)nc1 [Example 158, 2-((5-Acetylpyridin-2-yl)amino)-N-(5-(2-fluorophenyl)pyridin-3-yl)isonicotinamide]
IC50 (pTau): 690 nM | IC50 (GSK3α): 3 nM | IC50 (GSK3β; [1]): 6 nM

O=C(Nc1cnc(Cl)cc1C1(O)CCOCC1)c1ccnc(Nc2ccc(Cl)cn2)c1 [Example 111, N-(6-Chloro-4-(4-hydroxytetrahydro-2H-pyran-4-yl)pyridin-3-yl)-2-((5-chloropyridin-2-yl)amino)isonicotinamide]
IC50 (pTau): 530 nM | IC50 (GSK3α; [2]): 1.4 nM | IC50 (GSK3β): 2.6 nM

CC1(COc2ccncc2NC(=O)c2ccnc(Nc3ccc(C(F)(F)F)cn3)c2)CC1 [Example 44, N-(4-((1-Methylcyclopropyl)methoxy)pyridin-3-yl)-2-((5-(trifluoromethyl)pyridin-2-yl)amino)isonicotinamide]
IC50 (pTau): 52 nM | IC50 (GSK3α): 0.33 nM | IC50 (GSK3β; [1]): 1.4 nM

O=C(Nc1cncc(-c2ccccc2Cl)c1)c1ccnc(Nc2ccc(C(F)(F)F)cn2)c1 [Example 128, N-(5-(2-Chlorophenyl)pyridin-3-yl)-2-((5-(trifluoromethyl)pyridin-2-yl)amino)isonicotinamide]
IC50 (pTau): 2180 nM | IC50 (GSK3α): 16 nM | IC50 (GSK3β; [1]): 12 nM

O=C(Nc1cnccc1Sc1ccccc1)c1ccnc(Nc2ccc(C(F)(F)F)cn2)c1 [Example 172, N-(4-(Phenylthio)pyridin-3-yl)-2-((5-(trifluoromethyl)pyridin-2-yl)amino)isonicotinamide]
IC50 (pTau): 240 nM | IC50 (GSK3α): 1.1 nM | IC50 (GSK3β; [1]): 5.6 nM

CC1(c2cc(Cl)ncc2NC(=O)c2ccnc(Nc3ccc(C(F)(F)F)cn3)c2)OCCO1 [Example 76, N-(6-Chloro-4-(2-methyl-1,3-dioxolan-2-yl)pyridin-3-yl)-2-((5-(trifluoromethyl)pyridin-2-yl)amino)isonicotinamide]
IC50 (pTau): 13 nM | IC50 (GSK3α): 0.2 nM | IC50 (GSK3β; [1]): 0.32 nM

O=C(Nc1cnccc1N1CCCCC1)c1ccnc(Nc2ccc(C(F)(F)F)cn2)c1 [Example 23, N-(4-(Piperidin-1-yl)pyridin-3-yl)-2-((5-(trifluoromethyl)pyridin-2-yl)amino)isonicotinamide]
IC50 (pTau): 6.5 nM | IC50 (GSK3α): 0.15 nM | IC50 (GSK3β; [1]): 0.24 nM

O=C(Nc1ccnnc1)c1ccnc(Nc2ccc(C(F)(F)F)cn2)c1 [Example 196, N-(Pyridazin-4-yl)-2-((5-(trifluoromethyl)pyridin-2-yl)amino)isonicotinamide]
IC50 (pTau): 7400 nM | IC50 (GSK3α): 25 nM | IC50 (GSK3β; [1]): 80 nM

CCOc1ccncc1NC(=O)c1ccnc(Nc2nccc3ccccc23)c1 [Example 12, N-(4-Ethoxypyridin-3-yl)-2-(isoquinolin-1-ylamino)isonicotinamide]
IC50 (pTau): 5400 nM | IC50 (GSK3α): 35 nM | IC50 (GSK3β; [1]): 5.9 nM

CC[C@@]1(c2cc(Cl)ncc2NC(=O)c2ccnc(Nc3ccc(C(F)(F)F)cn3)c2)OC[C@H](C(F)(F)F)O1 [Example 86, N-(6-Chloro-4-((2R,4R)-2-ethyl-4-(trifluoromethyl)-1,3-dioxolan-2-yl)pyridin-3-yl)-2-((5-(trifluoromethyl)pyridin-2-yl)amino)isonicotinamide]
IC50 (pTau): 510 nM | IC50 (GSK3α): 2.4 nM | IC50 (GSK3β; [1]): 12 nM

O=C(Nc1cncc(-n2ccc(C(F)(F)F)n2)c1)c1ccnc(Nc2ccc(C(F)(F)F)cn2)c1 [Example 120, N-(5-(3-(Trifluoromethyl)-1H-pyrazol-1-yl)pyridin-3-yl)-2-((5-(trifluoromethyl)pyridin-2-yl)amino)isonicotinamide]
IC50 (pTau): 1500 nM | IC50 (GSK3α): 14 nM | IC50 (GSK3β; [1]): 29 nM

CC(C)C1(c2cc(Cl)ncc2NC(=O)c2ccnc(Nc3ccc(C(F)(F)F)cn3)c2)OCCO1 [Example 83, N-(6-Chloro-4-(2-isopropyl-1,3-dioxolan-2-yl)pyridin-3-yl)-2-((5-(trifluoromethyl)pyridin-2-yl)amino)isonicotinamide]
IC50 (pTau): 57 nM | IC50 (GSK3α): 0.55 nM | IC50 (GSK3β; [1]): 1.1 nM
